Results from US20250213555A1, “SUBSTITUTED TETRAHYDROFURAN ANALOGS AS MODULATORS OF SODIUM CHANNELS” (VERTEX PHARMACEUTICALS INCORPORATED, priority 2021, published 2025).
Read-outs that look alike come from different tables or passages of the source.

Biological target: human Nav 1.8 (Homo sapiens, UniProt Q9Y5Y9)
Assay: E-VIPR assay detecting and measuring Nav inhibition properties
Format: cell-based
Details: HEK cells expressing a truncated form of human Nav 1.8, read-out: measured IC50 value in the E-VIPR Assay
Procedure, shortened: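 Nav inhibition was read by E-VIPR: cells were electrically stimulated while coumarin/oxonol FRET emissions were recorded. Cells were HEK expressing a truncated human Nav 1.8 and co-transduced with KIR2.1, and were assayed in 25% final human serum.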

[1] = assay performed in the presence of human serum (compound numbers followed by "*")
[2] = compound numbers without "*" (not marked as run in the presence of human serum)

Sequence of human Nav 1.8 (Q9Y5Y9 126-399 limits assumed): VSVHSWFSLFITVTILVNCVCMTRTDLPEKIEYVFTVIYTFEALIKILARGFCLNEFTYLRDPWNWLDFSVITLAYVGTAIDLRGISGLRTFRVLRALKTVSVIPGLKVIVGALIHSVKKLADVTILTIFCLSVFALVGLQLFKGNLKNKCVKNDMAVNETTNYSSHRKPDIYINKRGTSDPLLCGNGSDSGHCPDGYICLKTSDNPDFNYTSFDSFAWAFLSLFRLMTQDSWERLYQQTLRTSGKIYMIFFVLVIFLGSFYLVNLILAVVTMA
Sequence of human Nav 1.8 (Q9Y5Y9 660-890 limits assumed): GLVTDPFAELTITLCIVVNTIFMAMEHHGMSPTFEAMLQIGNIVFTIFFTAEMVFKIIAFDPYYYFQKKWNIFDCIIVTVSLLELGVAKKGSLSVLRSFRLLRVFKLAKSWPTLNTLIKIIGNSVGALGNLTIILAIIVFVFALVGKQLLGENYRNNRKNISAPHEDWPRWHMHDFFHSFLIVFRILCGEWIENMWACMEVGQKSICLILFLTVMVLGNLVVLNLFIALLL
Sequence of human Nav 1.8 (Q9Y5Y9 1148-1722 limits assumed): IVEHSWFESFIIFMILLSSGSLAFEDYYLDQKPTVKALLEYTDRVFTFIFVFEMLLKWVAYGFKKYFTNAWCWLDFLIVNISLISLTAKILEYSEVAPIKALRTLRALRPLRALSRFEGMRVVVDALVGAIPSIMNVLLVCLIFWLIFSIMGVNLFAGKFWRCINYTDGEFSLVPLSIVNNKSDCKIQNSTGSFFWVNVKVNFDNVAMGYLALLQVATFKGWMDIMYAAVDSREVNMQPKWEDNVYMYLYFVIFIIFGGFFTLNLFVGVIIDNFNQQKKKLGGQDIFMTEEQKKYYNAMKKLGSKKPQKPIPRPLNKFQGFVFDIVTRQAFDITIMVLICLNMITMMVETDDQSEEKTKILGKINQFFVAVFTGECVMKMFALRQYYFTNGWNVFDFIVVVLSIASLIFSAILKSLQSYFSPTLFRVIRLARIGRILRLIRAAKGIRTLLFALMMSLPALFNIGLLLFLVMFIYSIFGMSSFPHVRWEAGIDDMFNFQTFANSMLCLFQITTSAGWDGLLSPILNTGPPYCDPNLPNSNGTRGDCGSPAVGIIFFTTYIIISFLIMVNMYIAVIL

SMILES | IC50 [1] | IC50 [2]
COCC[C@]1(C)C[C@@H](c2ccc(F)c(F)c2OC)[C@H](C(=O)Nc2ccnc(C(N)=O)c2)O1 (single isomer, unassigned) [Compound 30] | ≥ 1000 nM | –
C[C@H]1[C@@H](c2ccc(F)c(F)c2OCCN2C3COCC2C3)[C@H](C(=O)Nc2ccnc(C(N)=O)c2)O[C@@]1(C)C(F)(F)F [Compound 131, 4-((2R,3S,4S,5R)-3-(2-(2-(3-oxa-6-azabicyclo[3.1.1]heptan-6-yl)ethoxy)-3,4-difluorophenyl)-4,5-dimethyl-5-(trifluoromethyl)tetrahydrofuran-2-carboxamido)picolinamide] | – | 10 to 100 nM
COCC1(C)CC(c2ccc(F)c(F)c2OC)C(C(=O)Nc2ccnc(C(N)=O)c2)O1 (single isomer, unassigned) [Compound 28] | – | 100 to 1000 nM
COC1CC(Oc2c([C@H]3[C@H](C(=O)Nc4ccnc(C(N)=O)c4)O[C@@](C)(C(F)(F)F)[C@H]3C)ccc(F)c2F)C1 (stereo partly drawn) [Compound 162, 4-((2R,3S,4S,5R)-3-(3,4-difluoro-2-(3-methoxycyclobutoxy)phenyl)-4,5-dimethyl-5-(trifluoromethyl)tetrahydrofuran-2-carboxamido)picolinamide] | – | < 10 nM
COc1c([C@H]2[C@H](C(=O)Nc3ccnc(C(=O)N4CCC45CNC5)c3)O[C@@](C)(C(F)(F)F)[C@H]2C)ccc(F)c1F [Compound 225, (2R,3S,4S,5R)-N-(2-(1,6-diazaspiro[3.3]heptane-1-carbonyl)pyridin-4-yl)-3-(3,4-difluoro-2-methoxyphenyl)-4,5-dimethyl-5-(trifluoromethyl)tetrahydrofuran-2-carboxamide] | – | 10 to 100 nM
COc1c([C@H]2[C@H](C(=O)Nc3ccnc(C(=O)N4CC5COCC(C4)N5C)c3)O[C@@](C)(C(F)(F)F)[C@H]2C)ccc(F)c1F [Compound 284, (2R,3S,4S,5R)-3-(3,4-difluoro-2-methoxyphenyl)-4,5-dimethyl-N-(2-(9-methyl-3-oxa-7,9-diazabicyclo[3.3.1]nonane-7-carbonyl)pyridin-4-yl)-5-(trifluoromethyl)tetrahydrofuran-2-carboxamide] | – | < 10 nM
C[C@H]1[C@@H](c2ccc(F)c(F)c2OCCNC2COC2)[C@H](C(=O)Nc2ccnc(C(N)=O)c2)O[C@@]1(C)C(F)(F)F [Compound 118, 4-((2R,3S,4S,5R)-3-(3,4-difluoro-2-(2-(oxetan-3-ylamino)ethoxy)phenyl)-4,5-dimethyl-5-(trifluoromethyl)tetrahydrofuran-2-carboxamido)picolinamide] | – | 10 to 100 nM
COc1c([C@H]2[C@H](C(=O)Nc3ccnc(C(=O)N4CC5CC(C4)N5C)c3)O[C@@](C)(C(F)(F)F)[C@H]2C)ccc(F)c1F [Compound 278, (2R,3S,4S,5R)-3-(3,4-difluoro-2-methoxyphenyl)-4,5-dimethyl-N-(2-(6-methyl-3,6-diazabicyclo[3.1.1]heptane-3-carbonyl)pyridin-4-yl)-5-(trifluoromethyl)tetrahydrofuran-2-carboxamide] | – | < 10 nM
COc1c([C@H]2[C@H](C(=O)Nc3ccnc(C(=O)N4CCNCC4)c3)O[C@@](C)(C(F)(F)F)[C@H]2C)ccc(F)c1F [Compound 224, (2R,3S,4S,5R)-3-(3,4-difluoro-2-methoxyphenyl)-4,5-dimethyl-N-(2-(piperazine-1-carbonyl)pyridin-4-yl)-5-(trifluoromethyl)tetrahydrofuran-2-carboxamide] | – | < 10 nM
COc1c([C@H]2[C@H](C(=O)Nc3ccnc(C(=O)N4CCN(C)[C@H]5C[C@H]54)c3)O[C@@](C)(C(F)(F)F)[C@H]2C)ccc(F)c1F (single isomer, unassigned) [Compound 294, rel-(2R*,3S*,4S*,5R*)-3-(3,4-difluoro-2-methoxyphenyl)-4,5-dimethyl-N-(2-((1R,6S)-5-methyl-2,5-diazabicyclo[4.1.0]heptane-2-carbonyl)pyridin-4-yl)-5-(trifluoromethyl)tetrahydrofuran-2-carboxamide] | – | < 10 nM
COc1c([C@H]2[C@H](C(=O)Nc3ccnc(C(=O)N4C[C@@H](N)[C@@H](F)C4)c3)O[C@@](C)(C(F)(F)F)[C@H]2C)ccc(F)c1F [Compound 259, (2R,3S,4S,5R)-N-(2-((3R,4S)-3-amino-4-fluoropyrrolidine-1-carbonyl)pyridin-4-yl)-3-(3,4-difluoro-2-methoxyphenyl)-4,5-dimethyl-5-(trifluoromethyl)tetrahydrofuran-2-carboxamide] | – | < 10 nM
CC1C(c2ccc(F)c(F)c2OCC2CC(C)(O)C2)C(C(=O)Nc2ccnc(C(N)=O)c2)OC1(C)C(F)(F)F [Compound 199, rel-4-((2R*,3S*,4S*,5R*)-3-(3,4-difluoro-2-(((1r,3S)-3-hydroxy-3-methylcyclobutyl)methoxy)phenyl)-4,5-dimethyl-5-(trifluoromethyl)tetrahydrofuran-2-carboxamido)picolinamide] | – | 10 to 100 nM
C[C@@H](Oc1c([C@H]2[C@H](C(=O)Nc3ccnc(C(N)=O)c3)O[C@@](C)(C(F)(F)F)[C@H]2C)ccc(F)c1F)C1COC1 [Compound 157, 4-((2R,3S,4S,5R)-3-(3,4-difluoro-2-((R)-1-(oxetan-3-yl)ethoxy)phenyl)-4,5-dimethyl-5-(trifluoromethyl)tetrahydrofuran-2-carboxamido)picolinamide] | – | < 10 nM
COc1c([C@H]2[C@H](C(=O)Nc3ccnc(C(=O)N4CCN(C)C(C)(C)C4)c3)O[C@@](C)(C(F)(F)F)[C@H]2C)ccc(F)c1F [Compound 280, (2R,3S,4S,5R)-3-(3,4-difluoro-2-methoxyphenyl)-4,5-dimethyl-5-(trifluoromethyl)-N-(2-(3,3,4-trimethylpiperazine-1-carbonyl)pyridin-4-yl)tetrahydrofuran-2-carboxamide] | – | < 10 nM
C[C@]1(C(F)(F)F)C[C@@H](c2ccc(F)c(F)c2OCCCO)[C@H](C(=O)Nc2ccnc(C(N)=O)c2)O1 (relative stereo) [Compound 35, rel-4-((2R,3S,5R)-3-(3,4-difluoro-2-(3-hydroxypropoxy)phenyl)-5-methyl-5-(trifluoromethyl)tetrahydrofuran-2-carboxamido)picolinamide] | 100 to 1000 nM | –

More lines, now with the values ahead:

IC50 [1] | IC50 [2] | SMILES
– | < 10 nM | COc1c([C@H]2[C@H](C(=O)Nc3ccnc(C(=O)N4CC5(CN(C)C5)C4)c3)O[C@@](C)(C(F)(F)F)[C@H]2C)ccc(F)c1F [Compound 268, (2R,3S,4S,5R)-3-(3,4-difluoro-2-methoxyphenyl)-4,5-dimethyl-N-(2-(6-methyl-2,6-diazaspiro[3.3]heptane-2-carbonyl)pyridin-4-yl)-5-(trifluoromethyl)tetrahydrofuran-2-carboxamide]
– | < 10 nM | C[C@H]1[C@@H](c2ccc(F)c(F)c2OCCCN2CCOCC2)[C@H](C(=O)Nc2ccnc(C(N)=O)c2)O[C@@]1(C)C(F)(F)F [Compound 62, 4-((2R,3S,4S,5R)-3-(3,4-difluoro-2-(3-morpholinopropoxy)phenyl)-4,5-dimethyl-5-(trifluoromethyl)tetrahydrofuran-2-carboxamido)picolinamide]
– | < 10 nM | COC1CN(CCOc2c([C@H]3[C@H](C(=O)Nc4ccnc(C(N)=O)c4)O[C@@](C)(C(F)(F)F)[C@H]3C)ccc(F)c2F)C1 [Compound 52, 4-((2R,3S,4S,5R)-3-(3,4-difluoro-2-(2-(3-methoxyazetidin-1-yl)ethoxy)phenyl)-4,5-dimethyl-5-(trifluoromethyl)tetrahydrofuran-2-carboxamido)picolinamide]
– | < 10 nM | COc1c([C@H]2[C@H](C(=O)Nc3ccnc(C(=O)NCCO)c3)O[C@@](C)(C(F)(F)F)[C@H]2C)ccc(F)c1F [Compound 221, 4-((2R,3S,4S,5R)-3-(3,4-difluoro-2-methoxyphenyl)-4,5-dimethyl-5-(trifluoromethyl)tetrahydrofuran-2-carboxamido)-N-(2-hydroxyethyl)picolinamide]
– | < 10 nM | COc1c([C@H]2[C@H](C(=O)Nc3ccnc(C(=O)N4CCNC[C@H]4C)c3)O[C@@](C)(C(F)(F)F)[C@H]2C)ccc(F)c1F [Compound 235, (2R,3S,4S,5R)-3-(3,4-difluoro-2-methoxyphenyl)-4,5-dimethyl-N-(2-((R)-2-methylpiperazine-1-carbonyl)pyridin-4-yl)-5-(trifluoromethyl)tetrahydrofuran-2-carboxamide]
– | < 10 nM | COc1c([C@H]2[C@H](C(=O)Nc3ccnc(C(=O)N4C[C@@H](F)[C@@H](N(C)C)C4)c3)O[C@@](C)(C(F)(F)F)[C@H]2C)ccc(F)c1F [Compound 296, (2R,3S,4S,5R)-3-(3,4-difluoro-2-methoxyphenyl)-N-(2-((3S,4R)-3-(dimethylamino)-4-fluoropyrrolidine-1-carbonyl)pyridin-4-yl)-4,5-dimethyl-5-(trifluoromethyl)tetrahydrofuran-2-carboxamide]
– | < 10 nM | C[C@H]1[C@@H](c2ccc(F)c(F)c2OCCC2(C#N)CC2)[C@H](C(=O)Nc2ccnc(C(N)=O)c2)O[C@@]1(C)C(F)(F)F [Compound 77, 4-((2R,3S,4S,5R)-3-(2-(2-(1-cyanocyclopropyl)ethoxy)-3,4-difluorophenyl)-4,5-dimethyl-5-(trifluoromethyl)tetrahydrofuran-2-carboxamido)picolinamide]
– | < 10 nM | COc1c([C@H]2[C@H](C(=O)Nc3ccnc(C(=O)N4C[C@@H](C)NC[C@H]4C)c3)O[C@@](C)(C(F)(F)F)[C@H]2C)ccc(F)c1F [Compound 250, (2R,3S,4S,5R)-3-(3,4-difluoro-2-methoxyphenyl)-N-(2-((2R,5R)-2,5-dimethylpiperazine-1-carbonyl)pyridin-4-yl)-4,5-dimethyl-5-(trifluoromethyl)tetrahydrofuran-2-carboxamide]
– | < 10 nM | COCc1c([C@H]2[C@H](C(=O)Nc3ccnc(C(N)=O)c3)O[C@@](C)(C(F)(F)F)[C@H]2C)ccc(F)c1F (single isomer, unassigned) [Compound 147]
